Laboratory results published in patent publication US20120083522A1, “MODULATION OF INFLAMMATORY RESPONSES BY FACTOR XI” (Isis Pharmaceuitcals, inc., priority 2009, published 2012).
In the oligonucleotide strings, read from the 5' end, every base follows the letter of its sugar. An asterisk marks phosphorothioate; unmarked linkages are phosphodiester. Other units and linkages are bracketed, terminal groups are in braces. A string of capitals states the bases alone. e = 2'-O-(2-methoxyethyl) (MOE); [5mC] = 5-methylcytosine; d = 2'-deoxy (DNA)

What was measured:
Format in all cases: cell-based
human Factor XI mRNA [1] = assay: Antisense inhibition in HepG2 cells by microwalk gapmers, 75 nM, lipofectin (Example 3); settings: HepG2 cells, 75 nM
Procedure, shortened: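 HepG2 cells (10,000 per well) were transfected with 75 nM gapmer using lipofectin and treated for about 24 h. Factor XI mRNA was quantified by real-time PCR, normalized to RiboGreen total RNA and expressed as percent inhibition versus untreated controls.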

human Factor XI mRNA [2] = assay: Dose-dependent inhibition in HepG2 cells, lipofectin (Example 4); settings: 16 hours
Protocol: (§1) Cells were plated at a density of 10,000 cells per well and transfected using lipofectin reagent with 9.375 nM, 18.75 nM, 37.5 nM and 75 nM concentrations of antisense oligonucleotide, as specified in Table 9. After a treatment period of approximately 16 hours, RNA was isolated from the cells and Factor XI mRNA levels were measured by quantitative real-time PCR. Human Factor XI primer probe set RTS 2966 was used to measure mRNA levels. Factor XI mRNA levels were adjusted according to total RNA content, as measured by RIBOGREEN®. Results are presented as percent inhibition of Factor XI, relative to untreated control cells.

human Factor XI mRNA [3] = assay: Dose-dependent inhibition in HepG2 cells, electroporation (Example 4); settings: 16 hours
Protocol: as §1, with “The gapmers were also transfected via electroporation and their dose dependent inhibition of human Factor XI mRNA was measured. Cells” for “Cells”, “20,000” for “10,000”, “via electroporation” for “using lipofectin reagent”, “0.7 μM, 2.2 μM, 6.7 μM,” for “9.375 nM, 18.75 nM, 37.5 nM”, “20 μM” for “75 nM”, “10.” for “9.”

[4] = oligonucleotides targeted to nucleobases 1018 to 1042 of SEQ ID NO: 1
[5] = oligonucleotides targeted to nucleobases 1062 to 1091 of SEQ ID NO: 1
[6] = oligonucleotides targeted to nucleobases 1275 to 1318 of SEQ ID NO: 1

Row | Substance | % inhibition of human Factor XI mRNA levels (human Factor XI mRNA [1]; [5]) | % inhibition of human Factor XI mRNA levels (human Factor XI mRNA [1]; [6]) | other results
1 | 413474 (antisense eA*eG*e[5mC]*eA*eA*d[5mC]*d[5mC]*dG*dG*dG*dA*dT*dG*dA*dT*eG*eA*eG*eT*eG) [compound 413474] | – | – | % inhibition of human Factor XI mRNA levels (human Factor XI mRNA [1]; [4]): 93%; percent inhibition of Factor XI mRNA, relative to untreated control cells (human Factor XI mRNA [2]; 9.375 nM): 29%; percent inhibition of Factor XI mRNA, relative to untreated control cells (human Factor XI mRNA [2]; 18.75 nM): 44%; percent inhibition of Factor XI mRNA, relative to untreated control cells (human Factor XI mRNA [2]; 37.5 nM): 57%; percent inhibition of Factor XI mRNA, relative to untreated control cells (human Factor XI mRNA [2]; 75 nM): 67%; percent inhibition of Factor XI mRNA, relative to untreated control cells (human Factor XI mRNA [3]; 0.7 μM): 0%; percent inhibition of Factor XI mRNA, relative to untreated control cells (human Factor XI mRNA [3]; 2.2 μM): 5%; percent inhibition of Factor XI mRNA, relative to untreated control cells (human Factor XI mRNA [3]; 6.7 μM): 52%; percent inhibition of Factor XI mRNA, relative to untreated control cells (human Factor XI mRNA [3]; 20 μM): 81%
2 | 416842 (antisense eT*eG*eA*eG*eA*dT*dT*d[5mC]*dT*dT*dT*dG*dG*dG*d[5mC]*e[5mC]*eA*eT*eT*e[5mC]) [compound 416842] | 94% | – | percent inhibition of Factor XI mRNA, relative to untreated control cells (human Factor XI mRNA [2]; 9.375 nM): 18%; percent inhibition of Factor XI mRNA, relative to untreated control cells (human Factor XI mRNA [2]; 18.75 nM): 33%; percent inhibition of Factor XI mRNA, relative to untreated control cells (human Factor XI mRNA [2]; 37.5 nM): 62%; percent inhibition of Factor XI mRNA, relative to untreated control cells (human Factor XI mRNA [2]; 75 nM): 71%; percent inhibition of Factor XI mRNA, relative to untreated control cells (human Factor XI mRNA [3]; 0.7 μM): 0%; percent inhibition of Factor XI mRNA, relative to untreated control cells (human Factor XI mRNA [3]; 2.2 μM): 10%; percent inhibition of Factor XI mRNA, relative to untreated control cells (human Factor XI mRNA [3]; 6.7 μM): 66%; percent inhibition of Factor XI mRNA, relative to untreated control cells (human Factor XI mRNA [3]; 20 μM): 92%
3 | 416908 (antisense eG*e[5mC]*eA*dA*d[5mC]*d[5mC]*dG*dG*dG*dA*dT*dG*dA*dT*dG*dA*dG*eT*eG*e[5mC]) [compound 416908] | – | – | % inhibition of human Factor XI mRNA levels (human Factor XI mRNA [1]; [4]): 98%; percent inhibition of Factor XI mRNA, relative to untreated control cells (human Factor XI mRNA [2]; 9.375 nM): 36%; percent inhibition of Factor XI mRNA, relative to untreated control cells (human Factor XI mRNA [2]; 18.75 nM): 57%; percent inhibition of Factor XI mRNA, relative to untreated control cells (human Factor XI mRNA [2]; 37.5 nM): 67%; percent inhibition of Factor XI mRNA, relative to untreated control cells (human Factor XI mRNA [2]; 75 nM): 76%; percent inhibition of Factor XI mRNA, relative to untreated control cells (human Factor XI mRNA [3]; 0.7 μM): 7%; percent inhibition of Factor XI mRNA, relative to untreated control cells (human Factor XI mRNA [3]; 2.2 μM): 58%; percent inhibition of Factor XI mRNA, relative to untreated control cells (human Factor XI mRNA [3]; 6.7 μM): 74%; percent inhibition of Factor XI mRNA, relative to untreated control cells (human Factor XI mRNA [3]; 20 μM): 89%
4 | 416986 (antisense eA*eT*dT*d[5mC]*dT*dT*dT*dG*dG*dG*d[5mC]*d[5mC]*dA*dT*dT*e[5mC]*e[5mC]*eT*eG*eG) [compound 416986] | 88% | – | –
5 | 416987 (antisense eG*eA*dT*dT*d[5mC]*dT*dT*dT*dG*dG*dG*d[5mC]*d[5mC]*dA*dT*eT*e[5mC]*e[5mC]*eT*eG) [compound 416987] | 80% | – | –
6 | 416988 (antisense eA*eG*dA*dT*dT*d[5mC]*dT*dT*dT*dG*dG*dG*d[5mC]*d[5mC]*dA*eT*eT*e[5mC]*e[5mC]*eT) [compound 416988] | 76% | – | –
7 | 416990 (antisense eT*eG*dA*dG*dA*dT*dT*d[5mC]*dT*dT*dT*dG*dG*dG*d[5mC]*e[5mC]*eA*eT*eT*e[5mC]) [compound 416990] | 76% | – | –
8 | 416991 (antisense eT*eT*dG*dA*dG*dA*dT*dT*d[5mC]*dT*dT*dT*dG*dG*dG*e[5mC]*e[5mC]*eA*eT*eT) [compound 416991] | 87% | – | –
9 | 416992 (antisense eT*eT*dT*dG*dA*dG*dA*dT*dT*d[5mC]*dT*dT*dT*dG*dG*eG*e[5mC]*e[5mC]*eA*eT) [compound 416992] | 84% | – | –
10 | 416994 (antisense eT*e[5mC]*dT*dT*dT*dG*dA*dG*dA*dT*dT*d[5mC]*dT*dT*dT*eG*eG*eG*e[5mC]*e[5mC]) [compound 416994] | 83% | – | –
11 | 416995 (antisense eT*eT*d[5mC]*dT*dT*dT*dG*dA*dG*dA*dT*dT*d[5mC]*dT*dT*eT*eG*eG*eG*e[5mC]) [compound 416995] | 64% | – | –
12 | 416996 (antisense eT*eT*dT*d[5mC]*dT*dT*dT*dG*dA*dG*dA*dT*dT*d[5mC]*dT*eT*eT*eG*eG*eG) [compound 416996] | 22% | – | –
13 | 416997 (antisense eA*e[5mC]*dA*dG*dT*dT*dT*d[5mC]*dT*dG*dG*d[5mC]*dA*dG*dG*e[5mC]*e[5mC]*eT*e[5mC]*eG) [compound 416997] | – | 84% | –
14 | 416998 (antisense e[5mC]*eA*d[5mC]*dA*dG*dT*dT*dT*d[5mC]*dT*dG*dG*d[5mC]*dA*dG*eG*e[5mC]*e[5mC]*eT*e[5mC]) [compound 416998] | – | 88% | –
15 | 417001 (antisense eG*eT*dG*d[5mC]*dA*d[5mC]*dA*dG*dT*dT*dT*d[5mC]*dT*dG*dG*e[5mC]*eA*eG*eG*e[5mC]) [compound 417001] | – | 83% | –
16 | 417004 (antisense eT*eT*dG*dG*dT*dG*d[5mC]*dA*d[5mC]*dA*dG*dT*dT*dT*d[5mC]*eT*eG*eG*e[5mC]*eA) [compound 417004] | – | 86% | –
17 | 417005 (antisense eA*eT*dT*dG*dG*dT*dG*d[5mC]*dA*d[5mC]*dA*dG*dT*dT*dT*e[5mC]*eT*eG*eG*e[5mC]) [compound 417005] | – | 79% | –

Row | Substance | % inhibition of human Factor XI mRNA levels (human Factor XI mRNA [1]; [5]) | % inhibition of human Factor XI mRNA levels (human Factor XI mRNA [1]; [6]) | other results
18 | 417006 (antisense e[5mC]*eA*dT*dT*dG*dG*dT*dG*d[5mC]*dA*d[5mC]*dA*dG*dT*dT*eT*e[5mC]*eT*eG*eG) [compound 417006] | – | 81% | –
19 | 417007 (antisense eG*e[5mC]*dA*dT*dT*dG*dG*dT*dG*d[5mC]*dA*d[5mC]*dA*dG*dT*eT*eT*e[5mC]*eT*eG) [compound 417007] | – | 82% | –
20 | 417008 (antisense eG*eG*d[5mC]*dA*dT*dT*dG*dG*dT*dG*d[5mC]*dA*d[5mC]*dA*dG*eT*eT*eT*e[5mC]*eT) [compound 417008] | – | 82% | –
21 | 417009 (antisense e[5mC]*eG*dG*d[5mC]*dA*dT*dT*dG*dG*dT*dG*d[5mC]*dA*d[5mC]*dA*eG*eT*eT*eT*e[5mC]) [compound 417009] | – | 85% | –
22 | 417010 (antisense eA*e[5mC]*dG*dG*d[5mC]*dA*dT*dT*dG*dG*dT*dG*d[5mC]*dA*d[5mC]*eA*eG*eT*eT*eT) [compound 417010] | – | 81% | –
23 | 417011 (antisense eG*eA*d[5mC]*dG*dG*d[5mC]*dA*dT*dT*dG*dG*dT*dG*d[5mC]*dA*e[5mC]*eA*eG*eT*eT) [compound 417011] | – | 86% | –
24 | 417012 (antisense eG*eG*dA*d[5mC]*dG*dG*d[5mC]*dA*dT*dT*dG*dG*dT*dG*d[5mC]*eA*e[5mC]*eA*eG*eT) [compound 417012] | – | 72% | –
25 | 417013 (antisense e[5mC]*eG*dG*dA*d[5mC]*dG*dG*d[5mC]*dA*dT*dT*dG*dG*dT*dG*e[5mC]*eA*e[5mC]*eA*eG) [compound 417013] | – | 86% | –
26 | 417014 (antisense eG*e[5mC]*dG*dG*dA*d[5mC]*dG*dG*d[5mC]*dA*dT*dT*dG*dG*dT*eG*e[5mC]*eA*e[5mC]*eA) [compound 417014] | – | 87% | –
27 | 417015 (antisense eA*eG*d[5mC]*dG*dG*dA*d[5mC]*dG*dG*d[5mC]*dA*dT*dT*dG*dG*eT*eG*e[5mC]*eA*e[5mC]) [compound 417015] | – | 87% | –
28 | 417016 (antisense e[5mC]*eA*dG*d[5mC]*dG*dG*dA*d[5mC]*dG*dG*d[5mC]*dA*dT*dT*dG*eG*eT*eG*e[5mC]*eA) [compound 417016] | – | 85% | –
29 | 417017 (antisense eG*e[5mC]*dA*dG*d[5mC]*dG*dG*dA*d[5mC]*dG*dG*d[5mC]*dA*dT*dT*eG*eG*eT*eG*e[5mC]) [compound 417017] | – | 82% | –
30 | 417018 (antisense eG*eG*d[5mC]*dA*dG*d[5mC]*dG*dG*dA*d[5mC]*dG*dG*d[5mC]*dA*dT*eT*eG*eG*eT*eG) [compound 417018] | – | 82% | –
31 | 417019 (antisense eT*eG*dG*d[5mC]*dA*dG*d[5mC]*dG*dG*dA*d[5mC]*dG*dG*d[5mC]*dA*eT*eT*eG*eG*eT) [compound 417019] | – | 84% | –
32 | 417020 (antisense e[5mC]*eT*dG*dG*d[5mC]*dA*dG*d[5mC]*dG*dG*dA*d[5mC]*dG*dG*d[5mC]*eA*eT*eT*eG*eG) [compound 417020] | – | 84% | –
33 | 417021 (antisense eA*e[5mC]*dT*dG*dG*d[5mC]*dA*dG*d[5mC]*dG*dG*dA*d[5mC]*dG*dG*e[5mC]*eA*eT*eT*eG) [compound 417021] | – | 74% | –
